The record followed here is US5750754A, “Heterocyclic compounds” (Zeneca Limited, priority 1993, dated 1998).

Data set [1] concerns the target T1, purified human platelet fibrinogen receptor (GPIIb/IIIa) (Homo sapiens, UniProt P05106+P08514).
T1 construct: is isolated from human platelet lysates; from tissue
Briefly: Test (b): GPIIb/IIIa ELISA, inhibition of biotinylated fibrinogen binding. To be noted: purified human platelet GPIIb/IIIa, ELISA; for IC50: read-out: Test (b): pIC50 (-log(IC50)), 50% inhibition of biotinylated fibrinogen binding to GPIIb/IIIa (converted). Put shortly: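 Inhibition of biotinylated fibrinogen ([…]) binding to immobilised human platelet fibrinogen receptor, purified by KYGRGDS peptide affinity chromatography, was measured after 2 h at 30 °C. Readout: streptavidin–biotin-HRP colour with TMB at […]; value expressed as pIC50.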

Data set [2] deals with T2, human, citrated, platelet-rich plasma (Homo sapiens, UniProt P05106+P08514).
T2 construct: aggregating human, citrated, platelet-rich plasma; endogenous in cells; host or cells: human platelets in citrated platelet-rich plasma
Kind of data set: Test (a): inhibition of ADP stimulated platelet aggregation (Born). It is filed as cell-based. As to conditions: ADP induced aggregation of human platelet-rich plasma; for Kb: read-out: Test (a): pA2 value indicating potency of platelet aggregation inhibition (converted). The method in brief:
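pA2 calculated by comparing ADP EC50-type (50% response) values in presence and absence of compound, averaged across concentrations (generally 10-^5 M to 10-^10 M). Aggregation (Born) induced by ADP in citrated human platelet-rich plasma, giving dose-response curves.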

Data set [3] concerns Alderley Park Wistar rats. Briefly: Repeated oral dose study in the rat (liver effects, tolerability). To be noted: rat, oral, 500 mg/kg/day, seven days. It is filed as in vivo. Here is the method:
The following is a description of a study of the effects of the (-)-(3R) compound of Example 246 and the corresponding (3RS)-racemic mixture of Example 203 in the rat. Four groups of ten Alderley Park Wistar rats (each group comprising 5 male and 5 female rats) were dose orally with the (3RS)-racemic mixture of Example 203 at daily doses of 0, 25, 100 or 500 mg/kg. Dosing was continued for a total of seven days. The animals were killed and examined.
Four groups of ten Alderley Park Wistar rats (each group comprising 5 male and 5 female rats) were dosed orally with the (-)-(3R) compound of Example 246 at daily doses of 0, 50, 250 and 1000 mg/kg. The highest dose was not tolerated. After four or five days, four of the animals from this group were killed. The remaining six animals were dosed at 500 mg/kg/day for the remainder of the study. Dosing was continued for a total of fourteen days. The animals were killed and examined.

Counter-ions that a name gives are not always drawn.

T2 sequence (P08514 32-887 limits assumed): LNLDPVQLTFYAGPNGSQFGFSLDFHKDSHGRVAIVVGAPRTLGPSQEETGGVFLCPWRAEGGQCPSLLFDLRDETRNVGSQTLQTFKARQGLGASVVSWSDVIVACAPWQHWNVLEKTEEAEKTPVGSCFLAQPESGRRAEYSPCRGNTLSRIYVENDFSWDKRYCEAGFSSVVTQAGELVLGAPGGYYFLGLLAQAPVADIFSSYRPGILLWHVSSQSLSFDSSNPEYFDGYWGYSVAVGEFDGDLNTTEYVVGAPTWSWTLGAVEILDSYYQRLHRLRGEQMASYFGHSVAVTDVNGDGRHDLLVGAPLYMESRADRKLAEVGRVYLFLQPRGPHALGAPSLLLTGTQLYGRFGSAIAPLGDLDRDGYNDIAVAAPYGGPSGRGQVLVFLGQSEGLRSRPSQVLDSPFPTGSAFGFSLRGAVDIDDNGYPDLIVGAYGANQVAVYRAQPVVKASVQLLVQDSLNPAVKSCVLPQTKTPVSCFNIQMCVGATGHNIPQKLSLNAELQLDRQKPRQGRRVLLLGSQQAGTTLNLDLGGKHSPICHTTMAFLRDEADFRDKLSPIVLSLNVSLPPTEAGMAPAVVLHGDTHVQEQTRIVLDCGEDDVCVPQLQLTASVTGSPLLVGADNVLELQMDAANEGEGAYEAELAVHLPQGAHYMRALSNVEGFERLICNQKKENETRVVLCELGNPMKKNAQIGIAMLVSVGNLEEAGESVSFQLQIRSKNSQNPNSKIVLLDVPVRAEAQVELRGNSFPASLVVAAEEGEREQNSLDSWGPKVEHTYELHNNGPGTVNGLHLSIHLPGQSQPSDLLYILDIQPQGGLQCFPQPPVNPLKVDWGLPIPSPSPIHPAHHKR
T2 sequence (P08514 891-1039 limits assumed): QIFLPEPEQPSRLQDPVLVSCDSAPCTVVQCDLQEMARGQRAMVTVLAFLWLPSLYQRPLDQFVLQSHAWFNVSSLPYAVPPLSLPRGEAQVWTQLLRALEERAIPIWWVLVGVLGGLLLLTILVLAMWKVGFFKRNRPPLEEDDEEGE
T2 sequence (P05106 27-788): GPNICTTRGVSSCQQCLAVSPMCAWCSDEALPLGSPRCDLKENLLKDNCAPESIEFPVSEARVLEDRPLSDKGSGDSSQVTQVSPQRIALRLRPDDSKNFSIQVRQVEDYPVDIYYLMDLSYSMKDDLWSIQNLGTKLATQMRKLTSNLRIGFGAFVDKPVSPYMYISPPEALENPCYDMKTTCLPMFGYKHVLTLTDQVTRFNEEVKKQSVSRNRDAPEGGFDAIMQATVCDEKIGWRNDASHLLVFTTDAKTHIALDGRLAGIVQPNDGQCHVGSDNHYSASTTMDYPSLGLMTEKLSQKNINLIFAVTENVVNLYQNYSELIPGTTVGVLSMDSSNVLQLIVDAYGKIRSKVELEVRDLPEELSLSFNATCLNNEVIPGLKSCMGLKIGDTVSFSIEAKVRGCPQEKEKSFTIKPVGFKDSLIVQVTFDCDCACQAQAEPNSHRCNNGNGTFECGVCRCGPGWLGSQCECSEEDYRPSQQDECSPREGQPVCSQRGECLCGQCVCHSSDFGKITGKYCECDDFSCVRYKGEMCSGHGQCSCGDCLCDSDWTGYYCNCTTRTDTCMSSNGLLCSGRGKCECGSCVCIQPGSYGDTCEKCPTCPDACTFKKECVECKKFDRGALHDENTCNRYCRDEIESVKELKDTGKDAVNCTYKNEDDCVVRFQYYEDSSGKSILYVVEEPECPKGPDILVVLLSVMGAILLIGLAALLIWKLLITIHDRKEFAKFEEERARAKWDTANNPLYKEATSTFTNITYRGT
T1 sequence (P08514 32-887 limits assumed): as the sequence (P08514 32-887 limits assumed) above
T1 sequence (P08514 891-1039 limits assumed): as the sequence (P08514 891-1039 limits assumed) above
T1 sequence (P05106 27-788): as the sequence (P05106 27-788) above

Turning to `Cc1cc(C(=O)CN2CCN(c3ccncc3)CC2)ccc1OCC(=O)O` [Example 127, 4-[2-[4-(4-Pyridyl)piperazin-1-yl]acetyl]-2-methyl-phenoxyacetic acid, dihydrochloride], the IC50 in data set [1] was 200 nM. The Kb in data set [2] is 1580 nM.

With `COC(=O)C(CCOc1ccc(N2CCN(c3ccncc3)CC2)cc1)NC(=O)OC(C)(C)C` (racemic) [Example 211, RS Methyl 2-t-butoxycarbonylamino-4-[4-[4-(4-pyridyl)piperazine-1-yl]phenoxy]butyrat], the IC50 in data set [1] was 158 nM. Besides, the Kb in data set [2] was 1580 nM.

Regarding `O=C(O)[C@H]1CC[C@H](Oc2ccc(N3CCN(c4ccncc4)CC3)cc2)CC1` [Example 231, Trans-4-[4-[4-(4-pyridyl)piperazin-1-yl]phenoxy]cyclohexane carboxylic acid], the IC50 in data set [1] was 31.6 nM. The Kb in data set [2] is 200 nM.

`CCCCS(=O)(=O)NCc1ccc(C(=O)CN2CCN(c3ccncc3)CC2)cc1` [Example 22, N-[4-[2-[4-(4-Pyridyl)piperazin-1-yl]acetyl]phenyl]methyl-1-butanesulphonamide]: the IC50 in data set [1] is 3980 nM. Further, in data set [2], the Kb was 126 to 200 nM.

Consider `O=C(O)C1CCN(C(=O)CN2CCN(c3ccncc3)CC2)CC1` [Example 28, 1-[2-[4-(4-Pyridyl)piperazin-1-yl]acetyl]piperidin-4-carboxylic acid], for which, in data set [1], the IC50 was 2000 nM. Besides, in data set [2], the Kb was 20000 nM.

As for `CC(COc1ccc(N2CCN(c3ccncc3)CC2)cc1)CC(=O)O` (racemic) [Example 203, RS 3-Methyl-4-[4-[4-(4-pyridyl)piperazin-1-yl]phenoxy]butyric acid trifluoroacetate], in data set [1], the “Test (b): pIC50 (-log(IC50)), 50% inhibition of biotinylated fibrinogen binding to GPIIb/IIIa” value was determined as 8. Also, the “adverse effects in the liver” value in data set [3] was “Adverse effects were noted in the livers of six of the group of ten rats”. Besides, in data set [2], the “Test (a): pA2 value indicating potency of platelet aggregation inhibition” value was determined as 7.2.

As for `CCCCS(=O)(=O)N[C@@H](Cc1ccc(OCCCC2CCN(c3ccncc3)CC2)cc1)C(=O)O` [Example 82, 2-S-(n-Butylsulphonylamino)-3-[4-[3-[1-(4-pyridyl)piperidin-4-yl]propoxy]phenyl]propionic acid], the IC50 in data set [1] was 12.6 nM. In data set [2], the Kb was 501 nM.

As for `COC(=O)COc1ccc(C(=O)C(C)(C)N2CCN(c3ccncc3)CC2)cc1` [Example 175, Methyl 4-[2-[4-(4-pyridyl)piperazin-1yl]-2,2-dimethylacetyl]-phenoxyacetate], in data set [1], the IC50 was 631 nM. In addition, in data set [2], the Kb is 1260 nM.

As to `O=C(O)COc1cc(OCC(=O)O)cc(C(=O)CN2CCN(c3ccncc3)CC2)c1` [Example 134, Disodium 2,2'-[5-[2-[4-(4-pyridyl)piperazin-1-yl]acetyl]phenylene-1,3-dioxy]diacetate], the IC50 in data set [1] is 25100 nM. In data set [2], the Kb was 15800 nM.

In the case of `CCCCS(=O)(=O)N[C@@H](Cc1ccc(OCCCC2CCN(c3ccncc3)CC2)cc1)C(=O)OC` [Example 81, Methyl 2-S-(n-butylsulphonylamino)-3-[4-[3-[1-(4-pyridyl)piperidin-4-yl]propoxy]phenyl]propionate], the IC50 in data set [1] was 200 nM. Besides, the Kb in data set [2] was 15800 nM.
